Results published in US20090203610A1, “METHODS OF TREATING OBESITY OR DIABETES USING NT-4/5” (RINAT NEUROSCIENCE CORPORATION, priority 2004, published 2009).

Experiments:
db/db mice [1] = assay: Total blood cholesterol levels in db/db mice (Example 1); type: in vivo; settings: NT-4/5 20 mg/kg s.c., Rosiglitazone 3 mg/kg p.o.
Method: (§1) A difference was considered significant for p<0.05.
The blood triglyceride level and the total blood cholesterol level were determined with a triglyceride assay kit (ref 445850, Beckman Coutler, France) and a total cholesterol kit (ref 467825, Beckman Coutler, France), respectively, using a Synchron CX4 analyzer.

db/db mice [2] = assay: Serum transaminase (AST, ALT) activity in db/db mice (Example 1); settings: NT-4/5 20 mg/kg s.c., Rosiglitazone 3 mg/kg p.o.
Method: Test animals: 24 female 10-12 weeks old db/db mice (C57BL/Ks J Rj-db/db, Janvier, France), weighing in the target range of 40-50 g, were used in this study. These mice were housed in a temperature (19.5-24.5° C.) and relative humidity (45-65%) controlled room with a 12-hour light/dark cycle, with ad libitum access to filtered tap-water and irradiated pelleted laboratory chow (SAFE, France) throughout the study. Upon receipt at animal facilities, they were housed 4 per cage covered with filtered caps and at least a 5-day acclimation period was observed.
(§2) The mice were divided into three groups of 8 mice each (groups 1-3). Each group was treated with vehicle (PBS) subcutaneously (s.c.), 3 mg/kg Rosiglitazone orally (p.o.), or 20 mg/kg NT-4/5 subcutaneously (s.c.). From day 1 to day 5 (T1-T5) and then from day 8 to day 12 (T8-T12), the mice in groups 2 and 3 were dosed once daily for 5 consecutive days, with a volume of 10 ml/kg.
Collection of samples for analysis: One day before beginning the treatment (T0), non fasted db/db mice were weighed and blood samples were collected through the retro-orbital plexus (about 300 μL/mouse) under isoflurane anesthesia. Similarly, at day 5 (T5), day 12 (T12), day 19 (T19) and day 26 (T26), two hours after the last administration, blood samples were collected through the retro-orbital plexus under isoflurane anesthesia in non fasted mice.
(§3) Analysis of blood samples in db/db mice: Pre- and post dose serum levels of glucose, HbA1c, cholesterol and triglycerides, insulin, and non esterified fatty acids (NEFA), as well as aspirate amino-transferase (AST) and alanine amino-transferase activities (ALT) activities, were determined at different time points, as described further herein. At each time point and for each parameter, a mean % of the effect was calculated according to the following formula: ((T final−T initial)/T initial)*100. Statistical analysis was consistent in a one-way analysis of variance followed by multiple comparisons versus the vehicle group (Dunnett's test) on final values. In case the equal variance test fails, a Kruskall-Wallis one-way analysis of variance on ranks was conducted. A difference was considered significant for p<0.05.
Aspartate amino-transferase (AST) and alanine amino-transferase (ALT) activities were determined with an AST kit (ref. 442665, Beckman Coulter, France), an ALT kit (ref. 442620, Beckman Coulter, France), using a Synchron CX4 analyzer.

db/db mice [3] = assay: Serum nonesterified fatty acids (NEFA) in db/db mice (Example 1); type: in vivo; settings: NT-4/5 20 mg/kg s.c., Rosiglitazone 3 mg/kg p.o.
Method: as §1
Serum nonesterified fatty acids (NEFA) levels were determined by calorimetric method using a non esterified fatty acids kit (ref. FA 15, Randox, France).

db/db mice [4] = assay: Blood insulin level by ELISA in db/db mice (Example 1); type: in vivo; settings: NT-4/5 20 mg/kg s.c., Rosiglitazone 3 mg/kg p.o.
Method: as §1
The blood insulin level was determined by ELISA using an Insulin ELIT Plus kit (ref. INSRAT01-8N, Eurobio, France).

db/db mice [5] = assay: Body weight of db/db mice (Example 1); type: in vivo; settings: NT-4/5 20 mg/kg s.c., Rosiglitazone 3 mg/kg p.o.
Method: Throughout the experiment period (T1-T26), daily individual body weights as well as food intake per cage were measured.

db/db mice [6] = assay: Blood glucose levels in db/db mice (Example 1); type: in vivo; settings: NT-4/5 20 mg/kg s.c., Rosiglitazone 3 mg/kg p.o.
Method: Administration of NT-4/5 and reference substances: Rosiglitazone (3 mg/kg, Sequoia Research Products Ltd., UK), a thiazolidinedione compound for the therapy of type 2 diabetes, was used in the present experiment as a reference. Phosphate buffer saline was used as vehicle in this experiment. NT-4/5 was obtained from Genentech.
as §1

db/db mice [7] = assay: HbA1c in db/db mice (Example 1); type: in vivo
Method: as §1
HbA1c levels were determined using an HbA1c kit (ref. 650262, Beckman Coulter, France) and a Synchron CX4 synchronizer. HbA1c is an indicator for blood glucose control over the last 2-3 months. The normal level of HbA1c in C57BL/6J mouse (determined by measuring 8 normal healthy C57BL/6J mice) was about 3.5%.

db/db mice [8] = assay: Blood triglyceride levels in db/db mice (Example 1); type: in vivo; settings: NT-4/5 20 mg/kg s.c., Rosiglitazone 3 mg/kg p.o.
Method: Test animals: 24 female 10-12 weeks old db/db mice (C57BL/Ks J Rj-db/db, Janvier, France), weighing in the target range of 40-50 g, were used in this study. […] Upon receipt at animal facilities, they were housed 4 per cage covered with filtered caps and at least a 5-day acclimation period was observed.
as §2
Collection of samples for analysis: One day before beginning the treatment (T0), non fasted db/db mice were weighed and blood samples were collected through the retro-orbital plexus (about 300 μL/mouse) under isoflurane anesthesia. Similarly, at day 5 (T5), day 12 (T12), day 19 (T19) and day 26 (T26), two hours after the last administration, blood samples were collected through the retro-orbital plexus under isoflurane anesthesia in non fasted mice. […] An aliquot of serum was used for measuring glucose levels, the remaining was frozen until use.
as §3

CN(CCOc1ccc(CC2SC(=O)NC2=O)cc1)c1ccccn1 (stereo not drawn) [Rosiglitazone, reference compound]
cholesterol levels T0 (db/db mice [1]; day 0, before treatment): 3.27 mM
cholesterol levels T5 (db/db mice [1]; day 5): 3.48 mM
cholesterol % effect T5-T0 (db/db mice [1]; day 5 vs day 0): 6.5%
cholesterol levels T12 (db/db mice [1]; day 12): 3.25 mM
cholesterol % effect T12-T0 (db/db mice [1]; day 12 vs day 0): −0.3%
cholesterol levels T19 (db/db mice [1]; day 19): 3.01 mM
cholesterol % effect T19-T0 (db/db mice [1]; day 19 vs day 0): −7.5%
cholesterol levels T26 (db/db mice [1]; day 26): 3.05 mM
cholesterol % effect T26-T0 (db/db mice [1]; day 26 vs day 0): −6.7%
ALT T0 (db/db mice [2]; day 0, before treatment): 157.5 IU/L
ALT/AST ratio T0 (db/db mice [2]; day 0, before treatment): 1.00
AST T0 (db/db mice [2]; day 0, before treatment): 185.8 IU/L
ALT T5 (db/db mice [2]; day 5): 172.3 IU/L
ALT/AST ratio T5 (db/db mice [2]; day 5): 1.03
AST T5 (db/db mice [2]; day 5): 174.0 IU/L
ALT % effect T5-T0 (db/db mice [2]; day 5 vs day 0): 12.7%
ALT/AST ratio % effect T5-T0 (db/db mice [2]; day 5 vs day 0): 16.4%
AST % effect T5-T0 (db/db mice [2]; day 5 vs day 0): 8.2%
ALT T12 (db/db mice [2]; day 12): 222.0 IU/L
ALT/AST ratio T12 (db/db mice [2]; day 12): 1.13
AST T12 (db/db mice [2]; day 12): 200.5 IU/L
ALT % effect T12-T0 (db/db mice [2]; day 12 vs day 0): 43.6%
ALT/AST ratio % effect T12-T0 (db/db mice [2]; day 12 vs day 0): 30.4%
AST % effect T12-T0 (db/db mice [2]; day 12 vs day 0): 19.9%
ALT T19 (db/db mice [2]; day 19): 179.0 IU/L
ALT/AST ratio T19 (db/db mice [2]; day 19): 1.31
AST T19 (db/db mice [2]; day 19): 148.5 IU/L
ALT % effect T19-T0 (db/db mice [2]; day 19 vs day 0): 16.6%
ALT/AST ratio % effect T19-T0 (db/db mice [2]; day 19 vs day 0): 52.2%
AST % effect T19-T0 (db/db mice [2]; day 19 vs day 0): −6.9%
ALT T26 (db/db mice [2]; day 26): 144.3 IU/L
ALT/AST ratio T26 (db/db mice [2]; day 26): 1.05
AST T26 (db/db mice [2]; day 26): 143.0 IU/L
ALT % effect T26-T0 (db/db mice [2]; day 26 vs day 0): −10.1%
ALT/AST ratio % effect T26-T0 (db/db mice [2]; day 26 vs day 0): 17.1%
AST % effect T26-T0 (db/db mice [2]; day 26 vs day 0): −13.8%
NEFA levels T0 (db/db mice [3]; day 0, before treatment): 0.782 mM
NEFA levels T5 (db/db mice [3]; day 5): 0.507 mM
NEFA % effect T5-T0 (db/db mice [3]; day 5 vs day 0): −32.8%
NEFA levels T12 (db/db mice [3]; day 12): 0.444 mM
NEFA % effect T12-T0 (db/db mice [3]; day 12 vs day 0): −39.9%
NEFA levels T19 (db/db mice [3]; day 19): 0.739 mM
NEFA % effect T19-T0 (db/db mice [3]; day 19 vs day 0): −2.2%
NEFA levels T26 (db/db mice [3]; day 26): 0.345 mM
NEFA % effect T26-T0 (db/db mice [3]; day 26 vs day 0): −53.7%
insulin levels T0 (db/db mice [4]; day 0, before treatment): 6.93 nM
insulin levels T5 (db/db mice [4]; day 5): 3.94 nM
insulin % effect T5-T0 (db/db mice [4]; day 5 vs day 0): −37.0%
insulin levels T12 (db/db mice [4]; day 12): 2.85 nM
insulin % effect T12-T0 (db/db mice [4]; day 12 vs day 0): −51.8%
insulin levels T19 (db/db mice [4]; day 19): 7.30 nM
insulin % effect T19-T0 (db/db mice [4]; day 19 vs day 0): 14.4%
insulin levels T26 (db/db mice [4]; day 26): 6.33 nM
insulin % effect T26-T0 (db/db mice [4]; day 26 vs day 0): −5.7%
body weight, mean (db/db mice [5]; Day 0): 42.3 g
body weight expressed as % of baseline, mean (db/db mice [5]; Day 1): 98.3 % of baseline
body weight, mean (db/db mice [5]; Day 1): 41.6 g
body weight expressed as % of baseline, mean (db/db mice [5]; Day 2): 99.5 % of baseline
body weight, mean (db/db mice [5]; Day 2): 42.1 g
body weight expressed as % of baseline, mean (db/db mice [5]; Day 3): 100.0 % of baseline
body weight, mean (db/db mice [5]; Day 3): 42.3 g
body weight expressed as % of baseline, mean (db/db mice [5]; Day 4): 100.8 % of baseline
body weight, mean (db/db mice [5]; Day 4): 42.7 g
body weight expressed as % of baseline, mean (db/db mice [5]; Day 5): 102.2 % of baseline
body weight, mean (db/db mice [5]; Day 5): 43.3 g
body weight expressed as % of baseline, mean (db/db mice [5]; Day 6): 100.6 % of baseline
body weight, mean (db/db mice [5]; Day 6): 42.6 g
body weight expressed as % of baseline, mean (db/db mice [5]; Day 7): 101.1 % of baseline
body weight, mean (db/db mice [5]; Day 7): 42.8 g
body weight expressed as % of baseline, mean (db/db mice [5]; Day 8): 102.3 % of baseline
body weight, mean (db/db mice [5]; Day 8): 43.3 g
body weight expressed as % of baseline, mean (db/db mice [5]; Day 9): 103.8 % of baseline
body weight, mean (db/db mice [5]; Day 9): 43.9 g
body weight expressed as % of baseline, mean (db/db mice [5]; Day 10): 104.2 % of baseline
body weight, mean (db/db mice [5]; Day 10): 44.1 g
body weight expressed as % of baseline, mean (db/db mice [5]; Day 11): 104.9 % of baseline
body weight, mean (db/db mice [5]; Day 11): 44.4 g
body weight expressed as % of baseline, mean (db/db mice [5]; Day 12): 106.3 % of baseline
body weight, mean (db/db mice [5]; Day 12): 45.0 g
body weight expressed as % of baseline, mean (db/db mice [5]; Day 13): 104.9 % of baseline
body weight, mean (db/db mice [5]; Day 13): 44.4 g
body weight expressed as % of baseline, mean (db/db mice [5]; Day 14): 105.1 % of baseline
body weight, mean (db/db mice [5]; Day 14): 44.5 g
body weight expressed as % of baseline, mean (db/db mice [5]; Day 15): 104.9 % of baseline
body weight, mean (db/db mice [5]; Day 15): 44.4 g
body weight expressed as % of baseline, mean (db/db mice [5]; Day 18): 105.5 % of baseline
body weight, mean (db/db mice [5]; Day 18): 44.7 g
body weight expressed as % of baseline, mean (db/db mice [5]; Day 19): 106.0 % of baseline
body weight, mean (db/db mice [5]; Day 19): 44.9 g
body weight expressed as % of baseline, mean (db/db mice [5]; Day 20): 104.3 % of baseline
body weight, mean (db/db mice [5]; Day 20): 44.2 g
body weight expressed as % of baseline, mean (db/db mice [5]; Day 21): 105.3 % of baseline
body weight, mean (db/db mice [5]; Day 21): 44.6 g
body weight expressed as % of baseline, mean (db/db mice [5]; Day 22): 105.1 % of baseline
body weight, mean (db/db mice [5]; Day 22): 44.5 g
body weight expressed as % of baseline, mean (db/db mice [5]; Day 25): 106.7 % of baseline
body weight, mean (db/db mice [5]; Day 25): 45.2 g
body weight expressed as % of baseline, mean (db/db mice [5]; Day 26): 106.9 % of baseline
body weight, mean (db/db mice [5]; Day 26): 45.3 g
blood glucose levels T0 (db/db mice [6]; day 0, before treatment): 37.56 mM
blood glucose % effect T5-T0 (db/db mice [6]; day 5 vs day 0): −40.5%
blood glucose levels T12 (db/db mice [6]; day 12): 22.24 mM
blood glucose % effect T12-T0 (db/db mice [6]; day 12 vs day 0): −40.9%
blood glucose levels T19 (db/db mice [6]; day 19 (dosing stopped day 12)): 33.74 mM
blood glucose % effect T19-T0 (db/db mice [6]; day 19 vs day 0): −9.0%
blood glucose levels T26 (db/db mice [6]; day 26 (dosing stopped day 12)): 43.60 mM
blood glucose % effect T26-T0 (db/db mice [6]; day 26 vs day 0): 17.5%
HbA1c level decrease at T12 (db/db mice [7]; T12 vs T0): 1%
HbA1c level decrease at T26 (db/db mice [7]; T26 as compared to T0): 9.6%
HbA1c T0 (db/db mice [7]; day 0, before treatment, NT-4/5 20 mg/kg s.c., Rosiglitazone 3 mg/kg p.o.): 5.74%
HbA1c T12 (db/db mice [7]; day 12, NT-4/5 20 mg/kg s.c., Rosiglitazone 3 mg/kg p.o.): 5.69%
HbA1c % effect T12-T0 (db/db mice [7]; day 12 vs day 0, NT-4/5 20 mg/kg s.c., Rosiglitazone 3 mg/kg p.o.): −1.0%
HbA1c T26 (db/db mice [7]; day 26, NT-4/5 20 mg/kg s.c., Rosiglitazone 3 mg/kg p.o.): 5.18%
HbA1c % effect T26-T0 (db/db mice [7]; day 26 vs day 0, NT-4/5 20 mg/kg s.c., Rosiglitazone 3 mg/kg p.o.): −9.6%
triglycerides levels T0 (db/db mice [8]; day 0, before treatment): 1.39 mM
triglycerides levels T5 (db/db mice [8]; day 5): 0.81 mM
triglycerides % effect T5-T0 (db/db mice [8]; day 5 vs day 0): −30.1%
triglycerides levels T12 (db/db mice [8]; day 12): 0.61 mM
triglycerides % effect T12-T0 (db/db mice [8]; day 12 vs day 0): −51.0%
triglycerides levels T19 (db/db mice [8]; day 19): 0.64 mM
triglycerides % effect T19-T0 (db/db mice [8]; day 19 vs day 0): −46.1%
triglycerides levels T26 (db/db mice [8]; day 26): 1.58 mM
triglycerides % effect T26-T0 (db/db mice [8]; day 26 vs day 0): 23.4%
